In patent US7651692B2, “Use of extracts of the plant Litchi chinensis sonn” (Cognis France S.A., priority 2001, dated 2010):
Where two headings read alike, the source gives them in different places.

Tests used:
elastase = assay: Inhibition of elastase activity; assay type: biochemical; settings: concentration 0.1 % (w/v)
Description: Serine proteases, such as elastase for example, degrade elastin, proteoglycans and collagen and thus weaken the connective tissue. […] The incubation time was 30 mins. at room temperature. The inhibition was followed photometrically at 410 nm; 1′α1-antitrypsin was used as positive standard.

human keratinocytes = assay: Cell protecting effect against UV-B in human keratinocytes cultivated in vitro; assay type: cell-based; settings: UV-B 50 mJ/cm^2; 0.001% substance; level in % by comparison with the control
Description: Method: The effect of UV-B radiation was investigated in vitro in keratinocytes by determining the release of the cytoplasm enzyme LDH (lactate dehydrogenase). This enzyme serves as a marker for cell damage.
To carry out the tests, a defined medium containing fetal calf serum was inoculated with the keratinocytes and the plant extract (diluted with saline solution) was added 72 hours after the inoculation.
The keratinocytes were then exposed to a dose of UV-B (50 mJ/cm^2-tubes: DUKE FL40E).
After incubation for another day at 37° C./5% CO2, the LDH content in the supernatant was determined. The LDH (lactate dehydrogenase) content was determined by an enzyme reaction (kit used to determine LDH levels from Roche). The number of adhering keratinocytes was determined (after trypsin treatment) with a particle counter.

[1] = system: human leucocytes (neutrophilic granulocytes); assay: Anti-inflammatory activity: respiratory burst, released oxygen radicals; assay type: cell-based; settings: 0.001% by weight
Description: Method: Anti-inflammatory activity was studied on a cell line of human leucocytes (neutrophilic granulocytes). To this end, the cells were incubated with various concentrations of extracts of Example 1 to be tested, after which a respiratory burst was induced by yeast cell extract (“zymosan”) by activation of the cells for 30 mins. with 0.1 ml zymosan. The content of oxygen radicals intermediately formed was determined for 60 seconds by reaction with luminol via the luminescence and quantitatively evaluated. The luminescence yield falls in the presence of substances with radical-trapping properties. The percentage of released radicals was determined against a reference substance (Minocycline—a radical trapper). The results are expressed in % relative to the control. For control purposes, the number of intact cells was determined with a particle counter and is shown in % by comparison with the control.

[2] = DPPH Test (chemical test, activity towards free radicals)
From the text: (§1) The first test substrate selected was diphenyl picryl hydrazyl (DPPH), a purple-red colored stable radical which changes into its colorless leuco derivative on contact with radical trappers. The change of color can be followed photometrically. The test results are set out in Table 3 (DPPH Test). In another test, the hydroxylation of salicylic acid by hydroxyl radicals (from the reaction of hydrogen peroxide with iron(III) ions and EDTA) was investigated as a reference system. This reaction can also be photometrically investigated because the hydroxylation product is reddish in color. The influence of the extracts on the formation of hydroxysalicylic acid was measured at an optical density of 490 nm. In a third and final test, xanthine oxidase was selected as the test system. Under oxidative tress, the enzyme converts purine bases, for example adenine or guanine, into […]. The oxygen radicals intermediately formed can be detected by reaction with luminol (via the luminescence) and quantitatively determined. The luminescence output diminishes in the presence of substances with radical-trapping properties.

[3] = Fenton's reaction: hydroxylation of salicylic acid by hydroxyl radicals; settings: formation of hydroxysalicylic acid, optical density 490 nm
From the text: as §1

xanthine oxidase = assay: Luminol Test with xanthine oxidase (biochemical test)
From the text: as §1

[4] = Luminol + microperoxydase (biochemical test)
human fibroblasts [5] = assay type: cell-based
Description: Human fibroblasts were inoculated with 10% by weight fetal calf serum in a defined nutrient medium (DMEM=Dulbecco Minimum Essential Medium, a product of Life Technologie S.a.r.l.) and incubated for 24 h at 37° C. in a 5% CO2 atmosphere. The nutrient medium containing fetal calf serum was then replaced by a nutrient medium of DMEM without fetal calf serum. Active substance in the form of the two extracts of the pericarp of Litchi chinensis Sonn. was then added to this nutrient medium in various concentrations.

human fibroblasts [6] = assay: Cell protecting effect against UV-A on human fibroblasts cultivated in vitro; assay type: cell-based; settings: UV-A 20 J/cm^2; 0.0003% substance; level in % by comparison with the control
Description: Method: To carry out these tests, a defined culture medium containing the fibroblasts is inoculated with foetal calf serum and added to the plant extract (in the defined medium containing 10% fetal calf serum) 72 hours after inoculation.
After incubation for 48 hours at 37° C./5% CO2, the culture medium was replaced by saline solution (physiological NaCl solution) and the fibroblasts were exposed to a dose of UV-A (365 nm, 20 J/cm^2; tubes: MAZDA FLUOR TFWN40).
After the exposure to UV-A, the MDA level (malonaldialdehyde level) in the supernatant sodium chloride solution was quantitatively determined by reaction with thiobarbituric acid.

Human plasmin = Human plasmin (Homo sapiens, UniProt P00747); assay: Plasmin inhibition after addition of the synthetic substrate; assay type: biochemical; settings: 50 μg/ml
Sequence of Human plasmin (P00747 581-810 limits assumed): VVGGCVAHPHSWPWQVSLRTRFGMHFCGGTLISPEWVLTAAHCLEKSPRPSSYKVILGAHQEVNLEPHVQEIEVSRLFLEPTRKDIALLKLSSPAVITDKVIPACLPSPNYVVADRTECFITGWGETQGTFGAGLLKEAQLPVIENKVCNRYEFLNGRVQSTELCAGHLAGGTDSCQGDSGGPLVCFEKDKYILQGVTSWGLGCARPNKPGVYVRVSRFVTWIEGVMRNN
Sequence of Human plasmin (P00747 97-580 partner limits assumed): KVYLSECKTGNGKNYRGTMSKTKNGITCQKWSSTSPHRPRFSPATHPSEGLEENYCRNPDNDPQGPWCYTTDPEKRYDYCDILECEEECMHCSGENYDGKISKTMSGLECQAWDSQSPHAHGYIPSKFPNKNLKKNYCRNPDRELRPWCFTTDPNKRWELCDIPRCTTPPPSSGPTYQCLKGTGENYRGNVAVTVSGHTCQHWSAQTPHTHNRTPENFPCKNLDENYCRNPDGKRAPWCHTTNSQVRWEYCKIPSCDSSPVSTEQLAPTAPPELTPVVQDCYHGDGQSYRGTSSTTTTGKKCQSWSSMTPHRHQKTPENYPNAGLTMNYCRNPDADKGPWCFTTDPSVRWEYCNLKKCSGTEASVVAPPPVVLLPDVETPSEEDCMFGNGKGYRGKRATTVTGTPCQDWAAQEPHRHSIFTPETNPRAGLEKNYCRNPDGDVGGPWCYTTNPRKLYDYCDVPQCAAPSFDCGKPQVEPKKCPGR
Description: Thereafter, either synthetic substrate, especially “Val-Leu-paranitroanilide”, a product of Chromogenix, or natural pro-MMP3 obtained from Merck-Eurolab was added to the mixture. In the case of the synthetic substrate, absorption at 405 nm was measured every 5 minutes over a period of 30 minutes and the release of paranitroanilines was thus determined.
The inhibition of enzymatic activity was tested against a control with no substrate and against a reference substance, more particularly Aprotinine, a product of Sigma.

MMP-1 = assay: Inhibition of collagenase synthesis: MMP-1 poured out by fibroblasts; assay type: cell-based, human; settings: 0.1 μm
Description: (§2) This test is used to evaluate the ability of the litchi extract to reduce the toxic effects of UV-A radiation on human fibroblasts cultivated in vitro. To this end, both the quantity of the enzyme MMP-1 (matrix metalloproteinase) poured out and the quantity of the natural enzyme inhibitor TIMP-1 are determined. UV-A radiation is used in this test because it can penetrate into the dermis and induce oxidative stress which leads to ageing of the skin.
(§3) To this end, the fibroblasts are cultivated in a precisely defined medium containing fetal calf serum. […] After further incubation for one day at 37° C./5% CO2, the culture medium is replaced by a salt solution and the fibroblasts are exposed to UV-A (15 J/cm^2, lamp: SOL500, Dr. Höhnle. filter: H1, radiometer: Vibert Lourmat). After the exposure, the fibroblasts are incubated for another two days. The MMO-1 and TIMP-1 contents of the supernatant medium are determined with an Amersham test kit (Kit No. RPN2610 and RPN2611). No extract was added to the control.

TIMP-1 = TIMP-1 poured out by fibroblasts; assay type: cell-based, human; settings: concentration not printed in this line
Description: as §2, §3

human MMP-1 = molecular target: T1, human MMP-1 (Homo sapiens, UniProt P03956); assay: Inhibition of collagenase activity (MMP-1); assay type: biochemical; settings: concentration 50 nmol
T1 sequence (P03956 100-469): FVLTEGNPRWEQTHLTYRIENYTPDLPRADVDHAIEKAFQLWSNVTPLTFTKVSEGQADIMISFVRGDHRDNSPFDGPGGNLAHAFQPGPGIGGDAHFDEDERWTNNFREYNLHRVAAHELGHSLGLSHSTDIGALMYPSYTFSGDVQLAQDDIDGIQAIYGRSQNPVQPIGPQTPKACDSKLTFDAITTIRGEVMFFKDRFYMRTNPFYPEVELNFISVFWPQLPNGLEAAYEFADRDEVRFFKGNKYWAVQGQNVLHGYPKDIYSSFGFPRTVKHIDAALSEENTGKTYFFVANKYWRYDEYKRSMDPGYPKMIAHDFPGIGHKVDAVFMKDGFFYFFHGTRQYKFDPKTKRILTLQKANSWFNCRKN
Description: After exposure to the sun, dermal fibroblasts of elderly people pour out collagenases—also known as matrix metalloprotease (MMP). […] The incubation time was 60 mins. at room temperature. The hydrolysis of the substrate was determined by fluorescence spectrometry at λem=393 nm (λex=328 nm). The […] TIMP-1 (MMP inhibitor occurring naturally in tissue) was used as the comparison standard.

[7] = After exposure to UV-A (15 J/cm^2)

Molecule: 1′α1-Antitrypsin: natural elastase inhibitor used as positive standard
- Elastase inhibition in % (elastase): 68%

Molecule: CC(=O)Oc1ccccc1C(=O)O [aspirin]
- LDH released (human keratinocytes): 68%
- No. of keratinocytes (human keratinocytes): 33%

Molecule: CN(C)c1ccc(O)c2c1C[C@H]1C[C@H]3[C@H](N(C)C)C(O)=C(C(N)=O)C(=O)[C@@]3(O)C(O)=C1C2=O [Minocycline]
- No. of intact cells ([1]; in % by comparison with the control): 100%
- ROS content (%/control) ([1]; zymosan-induced respiratory burst): 28 %/control

Molecule: O=C1O[C@H]([C@@H](O)CO)C(O)=C1O [Ascorbic acid]
- EC50 in %, DPPH Test [2]: 0.0013%
- EC50 in %, Fenton's reaction [3]: 0.1%
- EC50 in %, Luminol (xanthine oxidase): 0.0006%
- EC50 in %, Luminol + microperoxydase [4]: 0.0058%
- EC50 in %, NBT (NBT (biochemical test)): 0.5909%
- LD50 in % (w/v), ATP (human fibroblasts [5]; human fibroblasts, 3 days, intracellular ATP content): 0.0056 % (w/v)
- LD50 in % (w/v), Proteins (human fibroblasts [5]; human fibroblasts, 3 days, protein content (Bradford)): 0.0055 % (w/v)

Molecule: tocopherol
- Cell proteins (human fibroblasts [6]): 97%
- GSH/protein (human fibroblasts [6]): 78%
- MDA released (human fibroblasts [6]): 11%
- EC50 in %, DPPH Test [2]: 0.0067%
- EC50 in %, Luminol (xanthine oxidase): No effect up
- EC50 in %, Luminol + microperoxydase [4]: No effect up
- EC50 in %, NBT (NBT (biochemical test)): No effect up
- LD50 in % (w/v), ATP (human fibroblasts [5]): Nt toxic up
- LD50 in % (w/v), Proteins (human fibroblasts [5]): Not toxic up

Molecule: Aprotinine
- % Inhibition compared with the control (plasmin) (Human plasmin): 100%

Molecule: C[C@@H]1C[C@H]2[C@@H]3CCC4=CC(=O)C=C[C@]4(C)[C@@]3(F)[C@@H](O)C[C@]2(C)[C@@]1(O)C(=O)CO [Dexamethasone]
- MMP-1 poured out (MMP-1; [7]): 7 ng/mL
- MMP-1 poured out (MMP-1; Without exposure to UV-A): 2 ng/mL
- TIMP-1 poured out (TIMP-1; [7]): 19 ng/mL
- TIMP-1 poured out (TIMP-1; Without exposure to UV-A): 39 ng/mL

Molecule: TIMP-1: MMP inhibitor occurring naturally in tissue, used as the comparison standard
- MMP-1 Inhibition in % (human MMP-1): 93%
